Several values for one entry are separate records, joined by “and”; a condition that tells them apart may be missing. Equal entries are not always repeated. Toxic doses and inconclusive results are not listed. Rule as the data show it: active = T/C of 150% or more; inactive = T/C below 125%.
Test system: L1210 leukemia ip in BDF1 mice, survival T/C
Experiment: NCI In Vivo Anticancer Drug Screen. Data for tumor model L1210 Leukemia (intraperitoneal) in B6D2F1 (BDF1) mice
Settings: endpoint: mean survival time, higher = longer survival
How it was run: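 Tumor was transplanted into mice, which were then dosed with test compound or vehicle alone. Survival was recorded for each group, and the treated figure was expressed relative to the control figure.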

[1] = dose: 75.0 mg/kg/injection, schedule: Q01DX001 (ip), vehicle: saline
[2] = dose: 100.0 mg/kg/injection, schedule: Q04DX003 (ip), vehicle: Klucel (hydroxypropylcellulose) (HPC)
[3] = dose: 150.0 mg/kg/injection, schedule: Q01DX001 (ip), vehicle: saline
[4] = dose: 6.25 mg/kg/injection, schedule: Q01DX009 (ip), vehicle: saline
[5] = dose: 12.5 mg/kg/injection, schedule: Q01DX009 (ip), vehicle: saline
[6] = dose: 100.0 mg/kg/injection, schedule: Q01DX001 (ip), vehicle: carboxymethylcellulose (CMC)
[7] = dose: 400.0 mg/kg/injection, schedule: Q01DX001 (ip), vehicle: carboxymethylcellulose (CMC)
[8] = dose: 100.0 mg/kg/injection, schedule: Q01DX009 (ip), vehicle: Klucel (hydroxypropylcellulose) (HPC)
[9] = dose: 200.0 mg/kg/injection, schedule: Q01DX009 (ip), vehicle: Klucel (hydroxypropylcellulose) (HPC)

Measured: T/C

O=C(Nc1cccc(C2=NCCN2)c1)c1cc(C(=O)Nc2cccc(C3=NCCN3)c2)cc(C(=O)Nc2cccc(C3=NCCN3)c2)c1
inactive: dose: 1.9 mg/kg/injection, schedule: Q01DX Z (ip), vehicle: carboxymethylcellulose (CMC) 97 % of control | dose: 2.8 mg/kg/injection, schedule: Q01DX Z (ip), vehicle: carboxymethylcellulose (CMC) 101 % of control | dose: 4.3 mg/kg/injection, schedule: Q01DX Z (ip), vehicle: carboxymethylcellulose (CMC) 97 % of control | dose: 6.5 mg/kg/injection, schedule: Q01DX Z (ip), vehicle: carboxymethylcellulose (CMC) 97 % of control and 103 % of control | dose: 9.7 mg/kg/injection, schedule: Q01DX Z (ip), vehicle: carboxymethylcellulose (CMC) 100 % of control | dose: 14.6 mg/kg/injection, schedule: Q01DX Z (ip), vehicle: carboxymethylcellulose (CMC) 96 % of control | dose: 22.0 mg/kg/injection, schedule: Q01DX Z (ip), vehicle: carboxymethylcellulose (CMC) 97 % of control | dose: 22.0 mg/kg/injection, schedule: Q01DX Z (ip), vehicle: saline 98 % of control | dose: 33.0 mg/kg/injection, schedule: Q01DX Z (ip), vehicle: saline 100 % of control

CCOC(=O)OC1C(OC)OC2COC(c3ccccc3)OC2C1OC(=O)OCC (configuration not stated)
inactive: dose: 100.0 mg/kg/injection, schedule: Q04DX002 (ip), vehicle: other 103 % of control | dose: 200.0 mg/kg/injection, schedule: Q04DX002 (ip), vehicle: other 97 % of control | dose: 400.0 mg/kg/injection, schedule: Q04DX002 (ip), vehicle: other 100 % of control

COc1ccccc1-n1c(=O)c(N=Nc2ccc(Cl)cc2)c(O)n(-c2ccccc2Cl)c1=S
inactive: dose: 50.0 mg/kg/injection, schedule: Q01DX001 (ip), vehicle: Klucel (hydroxypropylcellulose) (HPC) 94 % of control | dose: 100.0 mg/kg/injection, schedule: Q01DX001 (ip), vehicle: Klucel (hydroxypropylcellulose) (HPC) 101 % of control | dose: 200.0 mg/kg/injection, schedule: Q01DX001 (ip), vehicle: Klucel (hydroxypropylcellulose) (HPC) 92 % of control

CSc1nc(SCc2ccccc2)[nH]c(=O)n1
inactive: dose: 100.0 mg/kg/injection, schedule: Q04DX002 (ip), vehicle: saline with Tween-80 98 % of control | dose: 200.0 mg/kg/injection, schedule: Q04DX002 (ip), vehicle: saline with Tween-80 117 % of control | dose: 400.0 mg/kg/injection, schedule: Q04DX002 (ip), vehicle: saline with Tween-80 98 % of control

O=C(Nc1cccc(F)c1)N(CCO)C1CCCCC1
inactive: dose: 100.0 mg/kg/injection, schedule: Q01DX009 (ip), vehicle: saline 105 % of control | dose: 200.0 mg/kg/injection, schedule: Q01DX009 (ip), vehicle: saline 113 % of control | dose: 400.0 mg/kg/injection, schedule: Q01DX009 (ip), vehicle: saline 100 % of control

Cc1sc2ccc3ccccc3c2[n+]1C
inactive: dose: 50.0 mg/kg/injection, schedule: Q04DX003 (ip), vehicle: Klucel (hydroxypropylcellulose) (HPC) 105 % of control | [1] 103 % of control | [2] 109 % of control | [3] 111 % of control

CCc1ccc2c(c1)N(CC(C)CN(C)C)c1ccccc1S2 (configuration not stated)
inactive: dose: 1.56 mg/kg/injection, schedule: Q01DX009 (ip), vehicle: saline 115 % of control | dose: 3.12 mg/kg/injection, schedule: Q01DX009 (ip), vehicle: saline 109 % of control | [4] 106 % of control | [5] 102 % of control | dose: 12.5 mg/kg/injection, schedule: Q04DX003 (ip), vehicle: saline 113 % of control | dose: 25.0 mg/kg/injection, schedule: Q04DX003 (ip), vehicle: saline 115 % of control

CCC/C=C(/CC(=O)O)C(=O)O
inactive: dose: 100.0 mg/kg/injection, schedule: Q04DX003 (ip), vehicle: saline 95 % of control | dose: 200.0 mg/kg/injection, schedule: Q04DX003 (ip), vehicle: saline 100 % of control | dose: 400.0 mg/kg/injection, schedule: Q04DX003 (ip), vehicle: saline 97 % of control

NC1CONC1=O (configuration not stated)
inactive: dose: 100.0 mg/kg/injection, schedule: Q01DX009 (ip), vehicle: saline with Tween-80 101 % of control | dose: 200.0 mg/kg/injection, schedule: Q01DX009 (ip), vehicle: saline with Tween-80 98 % of control | dose: 400.0 mg/kg/injection, schedule: Q01DX009 (ip), vehicle: saline with Tween-80 98 % of control

CNc1ccc(/C=C2\C=Cc3ccccc32)cc1Cl
inactive: [6] 97 % of control | [7] 92 % of control

CC1C(=O)OC2C1CCC1(C)C=CC(=O)C(C)C21 (configuration not stated)
inactive: [1] 102 % of control | [3] 103 % of control

COc1cc2c3c(c1)/C(=N\Nc1ccccc1)CCN3CCC2
inactive: dose: 6.25 mg/kg/injection, schedule: Q01DX009 (ip), vehicle: DMSO 90 % of control | dose: 12.5 mg/kg/injection, schedule: Q01DX009 (ip), vehicle: DMSO 91 % of control | dose: 25.0 mg/kg/injection, schedule: Q01DX009 (ip), vehicle: DMSO 93 % of control and 90 % of control | dose: 25.0 mg/kg/injection, schedule: Q04DX003 (ip), vehicle: DMSO 95 % of control | dose: 50.0 mg/kg/injection, schedule: Q04DX003 (ip), vehicle: DMSO 95 % of control | dose: 100.0 mg/kg/injection, schedule: Q04DX003 (ip), vehicle: DMSO 100 % of control | dose: 200.0 mg/kg/injection, schedule: Q04DX003 (ip), vehicle: gum acacia 92 % of control

Cn1c(C(=O)O)cc2ccccc21
inactive: [8] 110 % of control | [9] 112 % of control | dose: 400.0 mg/kg/injection, schedule: Q01DX009 (ip), vehicle: Klucel (hydroxypropylcellulose) (HPC) 96 % of control

O=C(c1ccc([N+](=O)[O-])cc1)C1NC1c1ccc([N+](=O)[O-])cc1 (configuration not stated)
inactive: dose: 50.0 mg/kg/injection, schedule: Q01DX001 (ip), vehicle: carboxymethylcellulose (CMC) 108 % of control | [6] 100 % of control | dose: 200.0 mg/kg/injection, schedule: Q01DX001 (ip), vehicle: carboxymethylcellulose (CMC) 105 % of control | [7] 97 % of control

Cc1ccc(C(=O)CC(Sc2ccccc2N)c2c(Cl)cccc2Cl)c(C)c1 (configuration not stated)
inactive: dose: 50.0 mg/kg/injection, schedule: Q01DX009 (ip), vehicle: Klucel (hydroxypropylcellulose) (HPC) 94 % of control | dose: 100.0 mg/kg/injection, schedule: Q01DX005 (ip), vehicle: Klucel (hydroxypropylcellulose) (HPC) 108 % of control | [8] 94 % of control | dose: 100.0 mg/kg/injection, schedule: Q04DX002 (ip), vehicle: Klucel (hydroxypropylcellulose) (HPC) 98 % of control | dose: 200.0 mg/kg/injection, schedule: Q01DX005 (ip), vehicle: Klucel (hydroxypropylcellulose) (HPC) 89 % of control | [9] 91 % of control | dose: 200.0 mg/kg/injection, schedule: Q04DX002 (ip), vehicle: Klucel (hydroxypropylcellulose) (HPC) 109 % of control | dose: 400.0 mg/kg/injection, schedule: Q04DX002 (ip), vehicle: Klucel (hydroxypropylcellulose) (HPC) 117 % of control

O=C(c1cccnc1)c1cccnc1
inactive: [2] 91 % of control | dose: 200.0 mg/kg/injection, schedule: Q04DX003 (ip), vehicle: Klucel (hydroxypropylcellulose) (HPC) 100 % of control | dose: 400.0 mg/kg/injection, schedule: Q04DX003 (ip), vehicle: Klucel (hydroxypropylcellulose) (HPC) 97 % of control

O=CN(O)CC(=O)O.[Zn]
inactive: [4] 105 % of control | [5] 100 % of control | dose: 25.0 mg/kg/injection, schedule: Q01DX009 (ip), vehicle: saline 120 % of control

CCCC/C=C(\C)CCCCCCCCC (tested in a mixture with another compound)
inactive: dose: 100.0 mg/kg/injection, schedule: Q04DX003 (ip), vehicle: saline with Tween-80 90 % of control | dose: 200.0 mg/kg/injection, schedule: Q04DX003 (ip), vehicle: saline with Tween-80 89 % of control | dose: 400.0 mg/kg/injection, schedule: Q04DX003 (ip), vehicle: saline with Tween-80 98 % of control

— PubChem BioAssay AID248 (DTP/NCI, 2004)
